Measured values reported in patent US8940896B2, “Tetra-cyclic carboline derivatives useful in the inhibition of angiogenesis” (PTC Therapeutics, Inc., priority 2004, dated 2015).

Tested on: VEGF
Assay: Hypoxia-inducible endogenous VEGF expression, VEGF ELISA assay
Format: cell-based
Conditions: HeLa cells, hypoxic conditions (1% O2, 5% CO2), VEGF in conditioned media
Procedure: The ability of the compounds of the invention to modulate hypoxia-inducible endogenous VEGF expression may be analyzed as follows. VEGF protein levels may be monitored by an ELISA assay (R&D Systems). Briefly, HeLa cells may be cultured for 24-48 hours under hypoxic conditions (1% O2, 5% CO2, balanced with nitrogen) in the presence or absence of a compound of the invention. The conditioned media may then be assayed by ELISA, and the concentration of VEGF calculated from the standard ELISA curve of each assay.
A dose-response analysis may be performed using the ELISA assay and conditions described above. The conditions for the dose-response ELISA are analogous to those described above. A series of, e.g., seven different concentrations may be analyzed. In parallel, a dose-response cytotoxicity assay may be performed using CellTiter Glo (Promega) under the same conditions as the ELISA to ensure that the inhibition of VEGF expression was not due to the cytotoxicity. Dose-response curves may be plotted using percentage inhibition versus concentration of the compound, and EC50 and CC50 values may be generated for each compound with the maximal inhibition set as 100% and the minimal inhibition as 0%.

SMILES	EC50 [nM]
O=C1C2Cc3c([nH]c4ccccc34)C(C3CCCCC3)N2C(=S)N1C1CCCCC1 (stereo not shown) [Compound 1]	> 1000
O=C1C2Cc3c([nH]c4ccccc34)C(C3CCCCC3)N2C(=S)N1C1CC1 (stereo not shown) [Compound 5]	> 1000
O=C1C2Cc3c([nH]c4ccc(Br)cc34)C(c3ccc4c(c3)OCO4)N2C(=S)N1C1CCCCC1 (stereo not shown) [Compound 9]	8 to 40
COc1cccc(C2c3[nH]c4ccc(Br)cc4c3CC3C(=O)N(C4CC4)C(=S)N32)c1 (stereo not shown) [Compound 16]	< 8

Next, values leading:

EC50 [nM]	SMILES
< 8	COc1ccc(C2c3[nH]c4ccc(Br)cc4c3CC3C(=O)N(C4CCCCC4)C(=S)N32)cc1 (stereo not shown) [Compound 27]
200 to 1000	COc1ccc(C2c3[nH]c4ccccc4c3CC3C(=O)N(C4CCCCC4)C(=S)N32)cc1 (stereo not shown) [Compound 41]
> 1000	COc1ccc(C2c3[nH]c4ccccc4c3CC3C(=O)N(C4CCCCC4)C(=O)N32)cc1 (stereo not shown) [Compound 54]

Same assay, conditions: Homo sapiens, HeLa, HeLa cells, hypoxic conditions (1% O2, 5% CO2), VEGF in conditioned media

SMILES	EC50 [nM]
COc1cccc(C2c3[nH]c4ccccc4c3CC3C(=O)N(C4CCCCC4)C(=S)N32)c1 (racemic) [Compound 2]	> 1000
O=C1C2Cc3c([nH]c4ccccc34)C(c3ccc4c(c3)OCO4)N2C(=S)N1C1CCCCC1 (stereo not shown) [Compound 3]	> 1000
O=C1C2Cc3c([nH]c4ccccc34)C(c3ccc(F)cc3)N2C(=S)N1C1CCCCC1 (stereo not shown) [Compound 4]	> 1000
COc1cccc(C2c3[nH]c4ccccc4c3CC3C(=O)N(C4CC4)C(=S)N32)c1 (stereo not shown) [Compound 6]	> 1000
O=C1C2Cc3c([nH]c4ccc(Br)cc34)C(c3ccc(F)cc3)N2C(=S)N1C1CCCCC1 (stereo not shown) [Compound 10]	8 to 40
O=C1C2Cc3c([nH]c4ccccc34)C(C3CCCCC3)N2C(=S)N1C1CCCC1 (stereo not shown) [Compound 11]	200 to 1000
COc1cccc(C2c3[nH]c4ccccc4c3CC3C(=O)N(C4CCCC4)C(=S)N32)c1 (stereo not shown) [Compound 12]	> 1000
COc1ccc(C2c3[nH]c4ccccc4c3CC3C(=O)N(C4CCCC4)C(=S)N32)cc1 (stereo not shown) [Compound 13]	40 to 200
O=C1C2Cc3c([nH]c4ccccc34)C(c3ccc4c(c3)OCO4)N2C(=S)N1C1CCCC1 (stereo not shown) [Compound 14]	200 to 1000
O=C1C2Cc3c([nH]c4ccc(Br)cc34)C(C3CCCCC3)N2C(=S)N1C1CC1 (stereo not shown) [Compound 15]	200 to 1000
COc1ccc(C2c3[nH]c4ccc(Br)cc4c3CC3C(=O)N(C4CC4)C(=S)N32)cc1 (stereo not shown) [Compound 17]	< 8
O=C1C2Cc3c([nH]c4ccc(Br)cc34)C(c3ccc4c(c3)OCO4)N2C(=S)N1C1CC1 (stereo not shown) [Compound 18]	< 8
O=C1C2Cc3c([nH]c4ccc(Br)cc34)C(C3CCCCC3)N2C(=S)N1C1CCCC1 (stereo not shown) [Compound 19]	8 to 40
COc1cccc(C2c3[nH]c4ccc(Br)cc4c3CC3C(=O)N(C4CCCC4)C(=S)N32)c1 (stereo not shown) [Compound 20]	< 8
COc1ccc(C2c3[nH]c4ccc(Br)cc4c3CC3C(=O)N(C4CCCC4)C(=S)N32)cc1 (stereo not shown) [Compound 21]	< 8
O=C1C2Cc3c([nH]c4ccc(Br)cc34)C(c3ccc4c(c3)OCO4)N2C(=S)N1C1CCCC1 (stereo not shown) [Compound 22]	< 8
COc1ccc(C2c3[nH]c4ccc(C)cc4c3CC3C(=O)N(C4CCCCC4)C(=S)N32)cc1 (stereo not shown) [Compound 23]	8 to 40
COc1ccc(C2c3[nH]c4ccc(OC)cc4c3CC3C(=O)N(C4CCCCC4)C(=O)N32)cc1 (stereo not shown) [Compound 24]	40 to 200
O=C1C2Cc3c([nH]c4ccc(Cl)cc34)C(c3ccc4c(c3)OCO4)N2C(=S)N1C1CCCCC1 (stereo not shown) [Compound 25]	< 8

Continued, values first:

EC50 [nM]	SMILES
40 to 200	O=C1C2Cc3c([nH]c4ccc(Br)cc34)C(c3ccc(OCCN4CCCCC4)cc3)N2C(=S)N1C1CCCCC1 (stereo not shown) [Compound 26]
8 to 40	COc1cccc(C2c3[nH]c4ccc(Br)cc4c3CC3C(=O)N(C4CCCCC4)C(=S)N32)c1 (stereo not shown) [Compound 28]
8 to 40	O=C1C2Cc3c([nH]c4ccc(Br)cc34)C(c3ccc4c(c3)OCO4)N2C(=O)N1C1CCCCC1 (stereo not shown) [Compound 29]
40 to 200	O=C1C2Cc3c([nH]c4ccc(Br)cc34)C(C3CCCCC3)N2C(=S)N1C1CCCCC1 (stereo not shown) [Compound 30]
40 to 200	O=C1C2Cc3c([nH]c4ccc(Cl)cc34)C(c3ccc4c(c3)OCO4)N2C(=O)N1C1CCCCC1 (stereo not shown) [Compound 31]
40 to 200	CCN1C(=O)C2Cc3c([nH]c4ccc(C)cc34)C(c3ccc(OC)cc3)N2C1=O (stereo not shown) [Compound 33]
200 to 1000	Cc1ccc(N2C(=O)C3Cc4c([nH]c5ccccc45)C(c4cccc(Cl)c4)N3C2=S)cc1 (stereo not shown) [Compound 34]
200 to 1000	COc1ccc(C2c3[nH]c4ccccc4c3CC3C(=O)N(c4ccc(C(C)C)cc4)C(=O)N32)cc1 (stereo not shown) [Compound 35]
> 1000	O=C1C2Cc3c([nH]c4ccccc34)C(c3cccc(Cl)c3)N2C(=S)N1C1CCCCC1 (stereo not shown) [Compound 36]
> 1000	Cc1ccccc1N1C(=O)C2Cc3c([nH]c4ccccc34)C(c3cccc(Cl)c3)N2C1=S (stereo not shown) [Compound 37]
> 1000	O=C1C2Cc3c([nH]c4ccccc34)C(c3cccc(Cl)c3)N2C(=S)N1CCc1ccccc1 (stereo not shown) [Compound 38]
200 to 1000	O=C1C2Cc3c([nH]c4ccccc34)C(c3cccc(Cl)c3)N2C(=S)N1c1cccc(F)c1 (stereo not shown) [Compound 39]
200 to 1000	COc1ccc(C2c3[nH]c4ccccc4c3CC3C(=O)N(C4CCCCC4)C(=S)N32)cc1 (stereo not shown) [Compound 40]
200 to 1000	COc1ccc(C2c3[nH]c4ccccc4c3CC3C(=O)N(C(C)C)C(=S)N32)cc1 (stereo not shown) [Compound 42]
200 to 1000	COc1ccc(C2c3[nH]c4ccccc4c3CC3C(=O)N(c4cccc(F)c4)C(=S)N32)cc1 (stereo not shown) [Compound 43]
200 to 1000	Cc1ccc2[nH]c3c(c2c1)CC1C(=O)N(C2CCCCC2)C(=O)N1C3c1ccc2c(c1)OCO2 (stereo not shown) [Compound 44]
200 to 1000	COc1ccc(C2c3[nH]c4ccc(C)cc4c3CC3C(=O)N(C4CCCCC4)C(=O)N32)cc1 (stereo not shown) [Compound 45]
> 1000	COc1ccc(C2c3[nH]c4ccccc4c3CC3C(=O)N(c4ccc(C)cc4)C(=S)N32)cc1 (stereo not shown) [Compound 46]
> 1000	COc1ccc(C2c3[nH]c4ccccc4c3CC3C(=O)N(C4CCCCC4)C(=O)N32)cc1 (stereo not shown) [Compound 48]
> 1000	COc1ccc(C2c3[nH]c4ccccc4c3CC3C(=O)N(c4ccccc4)C(=O)N32)cc1 (stereo not shown) [Compound 50]
> 1000	COC(=O)c1cccc(N2C(=O)C3Cc4c([nH]c5ccccc45)C(c4ccc(OC)cc4)N3C2=S)c1 (stereo not shown) [Compound 51]
> 1000	CN1C(=O)C2Cc3c([nH]c4ccccc34)C(c3ccc(Cl)c(Cl)c3)N2C1=S (stereo not shown) [Compound 53]
> 1000	CCN1C(=O)C2Cc3c([nH]c4ccc(Br)cc34)C(c3ccc(OC)cc3)N2C1=O (stereo not shown) [Compound 55]
> 1000	O=C1C2Cc3c([nH]c4ccccc34)C(c3ccccc3)N2C(=S)N1C1CCCCC1 (stereo not shown) [Compound 56]
> 1000	COc1cccc(C2c3[nH]c4ccccc4c3CC3C(=O)N(c4ccccc4)C(=S)N32)c1 (stereo not shown) [Compound 57]
> 1000	CN1C(=O)C2Cc3c([nH]c4ccccc34)C(c3cccc(Cl)c3)N2C1=S (stereo not shown) [Compound 58]
> 1000	COCCN1C(=O)C2Cc3c([nH]c4ccccc34)C(c3ccc(OC)cc3)N2C1=S (stereo not shown) [Compound 59]
> 1000	COCCCN1C(=O)C2Cc3c([nH]c4ccccc34)C(c3ccc(OC)cc3)N2C1=S (stereo not shown) [Compound 62]
> 1000	CN1C(=O)C2Cc3c([nH]c4ccccc34)C(c3ccc(F)cc3)N2C1=S (stereo not shown) [Compound 63]
